Measurements reported in patent US9629813B2, “Nanoparticle formulations with enhanced mucosal penetration” (The Johns Hopkins University, priority 2012, dated 2017).

What was measured:
[1] = Vaginal epithelial distribution of FITC-containing biodegradable MPP versus FITC in HEC gel after 24 h; assay type: in vivo, mouse; details: MPP in UP water, FITC in isoosmolar HEC gel
Description: Biodegradable MPP containing FITC intravaginally was administered in UP water. As a comparison, FITC in the standard isoosmolar placebo gel, hydroxyethylcellulose (HEC), was administered. After 24 h, the vaginal tissue was excised and flattened between two glass slides.

HSV-2 strain G = assay: HSV-2 infection mouse model (vaginal protection); assay type: in vivo; details: 10 ID50
Description: (§1) Female 6-8 week-old CF-1 mice were purchased from Harlan (Indianapolis, Ind.). Mice were housed in a reverse light cycle facility (12 h light/12 h dark), to enable selection of mice in a naturally cycling estrus state. The mouse vagina during the estrus phase of the estrous cycle is most similar to the human vagina. Barrier properties to nanoparticles in estrus phase mouse mucus closely mimic the barrier properties to nanoparticles in human CVM. Thus, mice in estrus phase, as determined visually by the appearance of the vaginal introitus, were used for all distribution and retention studies. Mice used for vaginal HSV-2 protection and susceptibility studies were given a subcutaneous flank injection of 2.5 mg Depo-Provera (Pharmacia & Upjohn Company, New York, N.Y.) in 100 μL phosphate-buffered saline (PBS) 7 days prior to experiments. This treatment is commonly used to increase susceptibility to vaginal HSV-2 infection. All experimental protocols were approved by the Johns Hopkins Animal Care and Use Committee.
Mice received 20 μl of 10 mg/ml acyclovir monophosphate dissolved in either PBS (isoosmolar) or ultrapure water (hypoosmolar) immediately before use. […] Mice were dosed either 1 min or 60 min prior to viral inoculum. Mice were then challenged with 10 μl of inoculum containing HSV-2 strain G (ATCC #VR-724, 2.8×10^7 TCID50 per ml). For protection studies, HSV-2 was diluted 10-fold with Bartel's medium to deliver 10 ID50, a dose that typically infects 85-90% of control mice. For osmotic-induced susceptibility tests, virus was diluted 10-fold with Bartel's medium and further diluted 10-fold in either Bartel's medium (isoosmolar) or deionized water (hypoosmolar) to the ID50, a dose that infects half of the mice. Mice were assessed for infection three days later after inoculation by culturing a PBS vaginal lavage on human foreskin fibroblasts (Diagnostic Hybrids, MRHF Lot #440318W). In this model, input (challenge) virus is no longer detectable in lavage fluid if it is collected more than 12 h after the challenge.
The Wilcoxon rank-sum test was used to compare data sets. This test is non-parametric, and more appropriate in situations where a Gaussian distribution cannot be assumed. For HSV-2 infection studies, statistical significance was determined using Fisher's exact test, two-tailed distribution.

[2] = Drug distribution in the vagina (Doxorubicin surface coverage on flattened tissue); assay type: in vivo, mouse; details: for vaginal tissue area covered: non-ambulatory (supine for 1 h)
Description: as §1
Doxorubicin (NetQem, Durham, N.C.) was dissolved at 1 mg/ml concentration in either PBS (isoosmolar with respect to blood) or ultrapure water (hypoosmolar). For 1 liter of 1×PBS, 800 ml of distilled water; 8 g of NaCl; 0.2 g of KCl; 1.44 g of Na2HPO4; 0.24 g of KH2PO4: adjust the pH to 7.4 with HCl, add distilled water to a total volume of 1 liter.
Doxorubicin was vaginally administered both isoosmotically and hypoosmotically to mice in two different conditions. The “non-ambulatory” group was anesthetized with an intraperitoneal injection of Avertin working solution (prepared according to Johns Hopkins ACUC guidelines) and remained supine for 1 hr prior to tissue collection. […] The images were ‘thresholded’ to draw region of interest boundaries around the fluorescent signal, and then the area covered quantified using ImageJ software. An average percentage coverage was determined for each mouse, and these values were averaged over groups of n=5 mice.

[3] = Drug retention in the vagina (Doxorubicin fluorescence of whole cervicovaginal tract); assay type: in vivo, mouse; details: after 10 min supine; normalized to isoosmolar group
Description: Female 6-8 week-old CF-1 mice were purchased from Harlan (Indianapolis, Ind.). Mice were housed in a reverse light cycle facility (12 h light/12 h dark), to enable selection of mice in a naturally cycling estrus state. The mouse vagina during the estrus phase of the estrous cycle is most similar to the human vagina. Barrier properties to nanoparticles in estrus phase mouse mucus closely mimic the barrier properties to nanoparticles in human CVM. Thus, mice in estrus phase, as determined visually by the appearance of the vaginal introitus, were used for all distribution and retention studies. […]
Doxorubicin vas dissolved at a concentration 1 mg/ml in phosphate buffeted saline (“PBS”) (isoosmolar with respect to blood) or ultrapure water (hypoosmolar). […] Fluorescence images of the tissues were obtained using the Xenogen IVIS Spectrum imaging device (Caliper Life Sciences). To account for potential differences in Doxorubicin solution fluorescence, vials of both isoosmolar and hypoosmolar Doxorubicin solutions were included in the image. The ratio of the intensity of the two solutions was used to normalize the tissue fluorescence for each group. Quantification of fluorescent counts per unit area was calculated using the Xenogen Living Image 2.5 software. […]

Compound: FITC
- epithelial distribution on flattened vaginal tissue [1]: sparsely distributed

Compound: acyclovir monophosphate [ACVp]
- mice infected (HSV-2 strain G; 1% ACVp 1 min before virus, administered hypotonically): 31%
- mice infected (HSV-2 strain G; 1% ACVp 1 min before virus, administered isotonically): 49%
- mice infected (HSV-2 strain G; 1% ACVp 1 h before virus, administered hypotonically): 73%
- mice infected (HSV-2 strain G; 1% ACVp 1 h before virus, administered isotonically): 45%

Compound: COc1cccc2c1C(=O)c1c(O)c3c(c(O)c1C2=O)C[C@@](O)(C(=O)CO)C[C@@H]3O[C@H]1C[C@H](N)[C@H](O)[C@H](C)O1 [Doxorubicin]
- vaginal surface area covered ([2]; ambulatory for 10 mins, isoosmolar (isotonic) solution): 25%
- vaginal tissue area covered ([2]; hypoosmolar solution (ultrapure water)): 88%
- vaginal tissue area covered ([2]; isoosmolar solution (PBS)): 15%
- relative fluorescent signal in reproductive tract, hypoosmolar versus isoosmolar solution [3]: half
